We go through two molecules from US20260124200A1, “METHOD OF TREATING NEURODEGENERATIVE DISEASES” (The Board of Trustees of the University of Illinois, priority 2022, published 2026).

In data set [1] the test system is fpn-1.2KO C. elegans. In words: GFP-tagged ferritin (ftn-1) fluorescence in ASI neurons of fpn-1.2KO worms. Type of data set: in vivo. The text has this:
(§1) The ability of hinokitiol and FeM-1269 to confer neuroprotection. Replicated NBIA, was created fpn-1.2KO C. elegans strain using CRISPR/Cas9-mediated knockout and then mated with Pdat::GFP strain to create a fpn-1.2KO strain with GFP-tagged dopaminergic neurons (fpn-1.2KO; Pdat::GFP). The genotype of strains was verified by genotyping PCR and Sanger sequencing. All strains used have been backcrossed to N2 at least three times. To treat C. elegans with small molecules, day 4 adult worms were transferred to NGM containing small molecules. Worms were transferred to newly seeded small molecules containing NGM until the day seven in which they are imaged using a confocal microscope with GFP fluorescence. The scoring is conducted in a blinded study in which the integrity of the dopaminergic neuron is observed to reflect neurodegeneration. […] Hinokitiol derivative FeM-1269 may have potential to increase the therapeutic index of hinokitiol. […] On the other hand, hinokitiol and FeM-1269 treatment to fpn-1.2KO worms caused robust reductions of fluorescence levels (FIG. 3G-H) from the concentration of 0.1 μM and 0.05 μM, respectively, which can be associated with the release of intracellular iron from ASI neurons. […]

Data set [2] relates to fpn-1.2KO C. elegans. In words: Dopaminergic neurodegeneration scoring in fpn-1.2KO; Pdat::GFP worms. Type of data set: in vivo.
Description: as §1

Data set [3] can be described thus: LC-MS in vitro dopamine oxidation assay. Type of data set: physicochemical. As to conditions: 100 μM dopamine. On the procedure: To monitor dopamine oxidation, an in vitro assay using an LC-MS was developed by monitoring dopamine concentrations via mass spectrometry hits. Samples of 100 μM dopamine were prepared and then treated with either control, hino, or FeM-1269. […] In addition, this was monitored via LC-MS to see the concentration of DAC generated in this same process.

For another data set, the target named is human apo-Tf (Homo sapiens, UniProt P02787). Put plainly: Iron handoff to transferrin. The class given is biochemical. On the procedure: For kinetic experiments, 4 μM human apo-Tf was incubated with 64 μM Fe(Hino)3 complex. The reactions were stopped at several time points using sample buffer. Samples were run using the same conditions as above. After running, the gels were stained with RAPIDStain (G-biosciences 786-31), according to the manufacturer's instructions. The formation of different Fe-Tf species was quantified by measuring the band densities using ImageLab 4.1 (Bio-Rad) and expressed as a function of molar fractions.

In the next data set the test system is FPN1.2KO C. elegans. Put plainly: ROS (DCF) in lysate of treated FPN1.2KO C. elegans. The class given is in vivo. Conditions: treated day four, collected day 5, lysate with DCF.
The nature of data set [4]: EPR of Fe(II) oxidation on compound binding.
In a further data set the test system is flatiron mice. Put plainly: ICP-MS brain iron level in flatiron mice. Type of data set: in vivo. On the procedure:
In parallel to C. elegans, flatiron mice were used, a leading animal model of FPN1 deficiency due to H32R mutation of FPN1 (34, 35). These mice were subjected to ICP-MS and behavioral studies in which blood samples and tissues were collected and submitted for analysis. In addition, behavior was assessed by an elevated plus maze, exploratory mazes, and daily monitoring. […] To determine dose-dependency these mice were subjected to a singular IP injection to assess acute administration and then treated chronically via IP injections of 10 mg/kg for a week.

The nature of data set [5]: Cyclic voltammetry of hinokitiol-iron complexes. The class given is physicochemical. Conditions: 100 mV/s, 0.1 M Tris, 1:1 MeOH:H2O, pH=7.2, 100 μM Fe(NO3)3. The procedure: These were obtained with a 100 mV/s scan rate with a Hg electrode, Ag/AgCl reference, and graphite auxiliary using a 0.1 M Tris buffer in 1:1 MeOH:H2O at pH=7.2 and 100 μM Fe(NO3)3.

Chain of human apo-Tf (P02787 20-698): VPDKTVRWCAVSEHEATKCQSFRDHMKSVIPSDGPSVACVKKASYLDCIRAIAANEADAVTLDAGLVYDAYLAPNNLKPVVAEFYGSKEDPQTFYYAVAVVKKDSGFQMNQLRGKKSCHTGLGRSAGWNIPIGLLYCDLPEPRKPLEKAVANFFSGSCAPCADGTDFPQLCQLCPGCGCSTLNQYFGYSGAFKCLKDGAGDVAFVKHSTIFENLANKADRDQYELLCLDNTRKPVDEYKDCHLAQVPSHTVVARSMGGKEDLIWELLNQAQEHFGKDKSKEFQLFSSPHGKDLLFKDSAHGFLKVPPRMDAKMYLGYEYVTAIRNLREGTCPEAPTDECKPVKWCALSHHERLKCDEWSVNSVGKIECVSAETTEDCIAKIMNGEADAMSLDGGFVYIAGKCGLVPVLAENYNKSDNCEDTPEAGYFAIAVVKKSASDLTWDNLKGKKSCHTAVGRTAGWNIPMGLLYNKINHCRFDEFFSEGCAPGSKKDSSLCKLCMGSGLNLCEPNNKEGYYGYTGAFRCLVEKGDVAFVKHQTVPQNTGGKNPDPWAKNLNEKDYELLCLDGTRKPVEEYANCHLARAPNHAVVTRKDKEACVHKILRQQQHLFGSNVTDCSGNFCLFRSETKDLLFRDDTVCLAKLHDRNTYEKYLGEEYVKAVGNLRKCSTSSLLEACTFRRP

Take `Cc1c(O)c(=O)ccn1C` [DFP, deferiprone]: the “ferritin-GFP fluorescence level in ASI neurons” value with fpn-1.2KO C. elegans [1] (all administered concentrations) is reported as “failed to reduce the fluorescence level”. Further, the “neuroprotective effect (dopaminergic neurodegeneration score)” value with fpn-1.2KO C. elegans [2] (all concentrations administered) is given as “did not confer neuroprotective effects”.
As to `CC(C)c1cccc(=O)c(O)c1` [hinokitiol], the “dopamine oxidation (dopamine remaining)” value in data set [3] was “mitigating dopamine oxidation”. Further, the “iron handoff to transferrin” value on human apo-Tf is reported as “can handoff iron to transferrin”. Further, in the data set with FPN1.2KO C. elegans, the “ROS level in vivo” value is “restore wild type levels of ROS”. The “ferroxidase-mimicking activity (EPR)” value in data set [4] (EPR results) is reported as “promoting Fe(II) oxidation to Fe(III)”. Moreover, in data set [4] (Fe(II) plus compound 3:1, 1:1 MeOH:H2O, 77K), the “EPR signal g′” value is recorded as 4.3. In the data set on fpn-1.2KO C. elegans [1] (ASI neurons, GFP-tagged ferritin), the “concentration from which fluorescence levels are robustly reduced” value was at least 0.1 µM. Moreover, the blood-brain barrier penetration result with flatiron mice (inferred from brain iron decrease) is “capacity to penetrate blood-brain barrier”. The “brain iron level after acute administration” value in the data set with flatiron mice (singular IP injection) is listed as “dose-dependent decrease of brain iron level”. Also, the “redox potentials of Fe:Hino” value in data set [5] is reported as “decreased with increasing hinokitiol concentrations”. Moreover, the “concentration showing neuroprotective efficacy” value in the data set on fpn-1.2KO C. elegans [2] (worms treated day 4 to day seven) was in the range of 0.05 to 0.1 µM.
